This note sets out measurements from US20230365592A1 (Agios Pharmaceuticals, Inc., priority 2022, published 2023).

In general, AC50 refers to the concentration at which the activity in the assay is half-maximal.

The target in one assay is T1, human PAH with the R408W mutation (Homo sapiens, UniProt P00439, R408W).
T1 construct: expressed in transfected cells
T1 sequence (P00439 1-452 R408W): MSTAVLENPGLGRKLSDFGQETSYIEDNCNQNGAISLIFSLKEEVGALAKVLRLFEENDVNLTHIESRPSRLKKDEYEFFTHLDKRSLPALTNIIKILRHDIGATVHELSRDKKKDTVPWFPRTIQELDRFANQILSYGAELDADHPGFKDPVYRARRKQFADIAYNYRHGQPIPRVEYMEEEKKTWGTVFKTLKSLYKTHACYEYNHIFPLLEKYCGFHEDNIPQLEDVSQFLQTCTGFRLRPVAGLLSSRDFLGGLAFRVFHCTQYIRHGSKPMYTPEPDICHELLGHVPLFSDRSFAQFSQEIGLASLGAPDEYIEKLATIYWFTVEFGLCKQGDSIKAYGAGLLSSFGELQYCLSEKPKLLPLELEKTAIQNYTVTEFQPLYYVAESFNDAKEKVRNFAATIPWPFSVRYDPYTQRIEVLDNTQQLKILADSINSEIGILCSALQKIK
Kind of assay: Cell Based Phenylalanine Flux Assay.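 Note: after compound treatment, cells received sepiapterin plus isotope-labelled Phenylalanine for 4 hours, then labelled Tyrosine in the medium was quantified, 10-point 2-fold dilution series run in duplicate.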 The note with it: A375 cells expressing R408W PAH; 24 hrs with compound, then 20 µM sepiapterin and 800 µM 13C9,15N-Phenylalanine for 4 hours; 13C-Tyrosine by LC-MS; average where tested multiple times; read-out: AC50.
Take `Cc1cccc2cc(C3c4nc[nH]c4CCN3C(=O)c3nc(C(F)F)nn3C)nn12` (stereo not shown): the AC50 fell in the range of 1000 to 5000 nM.

For the molecule `O=C(c1nnc(-c2ncccn2)o1)N1CCc2[nH]cnc2C1c1cc2cccc(C(F)(F)F)n2n1` (stereo not shown), the half-maximal activity concentration (AC50) was greater than 5000 nM.

As to `CN(C)Cc1ccc2c(C(=O)N3CCc4[nH]cnc4C3c3cc4cccc(C(F)F)n4n3)cnn2c1` (stereo not shown), the AC50 is greater than 5000 nM. The same measure, in the same setting: the result for `Cn1cnc(-c2nnc(C(=O)N3CCc4[nH]cnc4C3c3cc4c(C(F)F)cccn4n3)o2)c1` (stereo not shown) reads 1000 to 5000 nM. For the molecule `COc1cccn2nc(C3c4nc[nH]c4CCN3C(=O)c3nnc(-c4ncccc4F)o3)cc12` (stereo not shown), the AC50 was in the range of 1000 to 5000 nM. The same measure, in the same setting: the same measure for `Cc1cccn2nc(C3c4nc[nH]c4CCN3C(=O)c3nnc(-c4cncn4C)o3)cc12` (stereo not shown): 1000 to 5000 nM; for `CC(F)(F)c1nnc(N2CCc3[nH]cnc3C2c2cc3cccc(C(F)(F)F)n3n2)o1` (stereo not shown): 1000 to 5000 nM; for `O=C(c1nnc(-c2cnn(CC(F)F)c2)o1)N1CCc2[nH]cnc2C1c1cc2ccccn2n1` (stereo not shown): 1000 to 5000 nM.

Take `Cc1nnc(C(=O)N2CCc3[nH]cnc3[C@H]2c2cc3cccc(C(F)F)n3n2)o1` (single isomer, unassigned): the AC50 lay in the range of 1000 to 5000 nM.

Staying with this assay, now noted: A375 cells expressing human PAH R408W; 24 hrs compound incubation; 13C-Tyrosine by LC-MS; average where tested multiple times; read-out: AC50.
In the case of `FC(F)(F)c1cnc(N2CCc3[nH]cnc3[C@@H]2c2cc3c(C4CC4)cccn3n2)nc1` [Example 2175, (R)-4-(4-cyclopropylpyrazolo[1,5-a]pyridin-2-yl)-5-(5-(trifluoromethyl)pyrimidin-2-yl)-4,5,6,7-tetrahydro-1H-imidazo[4,5-c]pyridine], the AC50 was greater than 5000 nM. As to `Cc1cccnc1-c1nnc(N2CCc3[nH]cnc3[C@H]2c2cc3c(C(C)C)cccn3n2)o1` [Example 2285, (S)-2-(4-(4-isopropylpyrazolo[1,5-a]pyridin-2-yl)-1,4,6,7-tetrahydro-5H-imidazo[4,5-c]pyridin-5-yl)-5-(3-methylpyridin-2-yl)-1,3,4-oxadiazole], the AC50 was less than 500 nM. With `COc1cccn2nc([C@@H]3c4nc[nH]c4CCN3c3ccc(C(F)(F)F)cn3)cc12` [Example 2247, (S)-4-(4-methoxypyrazolo[1,5-a]pyridin-2-yl)-5-(5-(trifluoromethyl)pyridin-2-yl)-4,5,6,7-tetrahydro-1H-imidazo[4,5-c]pyridine], the AC50 was less than 500 nM.

For `O=C(c1nnc(C2CC2)s1)N1CCc2[nH]cnc2[C@H]1c1cc2ccccn2n1` [Example 1991, (S)-(5-cyclopropyl-1,3,4-thiadiazol-2-yl)(4-(pyrazolo[1,5-a]pyridin-2-yl)-1,4,6,7-tetrahydro-5H-imidazo[4,5-c]pyridin-5-yl)methanone], the AC50 lay within 500 to 1000 nM. Still for that read-out and setting: the same measure for `Cc1cccc2cc([C@@H]3c4nc[nH]c4CCN3c3nnc(C(F)(F)F)o3)nn12` [Example 1850, (S)-2-(4-(7-methylpyrazolo[1,5-a]pyridin-2-yl)-6,7-dihydro-1H-imidazo[4,5-c]pyridin-5(4H)-yl)-5-(trifluoromethyl)-1,3,4-oxadiazole]: 500 to 1000 nM. On the same count and under the same terms, the same measure for `Cc1cc(-c2nnc(C(=O)N3CCc4[nH]cnc4[C@H]3c3cc4c(C(C)C)cccn4n3)o2)nn1C` [Example 2007, (S)-(5-(1,5-dimethyl-1H-pyrazol-3-yl)-1,3,4-oxadiazol-2-yl)(4-(4-isopropylpyrazolo[1,5-a]pyridin-2-yl)-1,4,6,7-tetrahydro-5H-imidazo[4,5-c]pyridin-5-yl)methanone]: less than 500 nM. The same measure, in the same setting: the same measure for `Cn1cc(-c2ccc3c(C(=O)N4CCc5[nH]cnc5[C@H]4c4cc5cccc(C(F)(F)F)n5n4)cnn3c2)cn1` [Example 2438, (S)-(6-(1-methyl-1H-pyrazol-4-yl)pyrazolo[1,5-a]pyridin-3-yl)(4-(7-(trifluoromethyl)pyrazolo[1,5-a]pyridin-2-yl)-6,7-dihydro-1H-imidazo[4,5-c]pyridin-5(4H)-yl)methanone]: 1000 to 5000 nM. Take `O=C(c1ncco1)N1CCc2[nH]cnc2[C@H]1c1cc2c(C(F)F)cccn2n1` [Example 2076, (S)-(4-(4-(difluoromethyl)pyrazolo[1,5-a]pyridin-2-yl)-1,4,6,7-tetrahydro-5H-imidazo[4,5-c]pyridin-5-yl)(oxazol-2-yl)methanone]: the AC50 is 500 to 1000 nM. Still for that read-out and setting: the same measure for `Cc1cccn2nc([C@@H]3c4nc[nH]c4CCN3C(=O)c3cnc(-c4ccccn4)o3)cc12` [Example 1964, (S)-(4-(4-methylpyrazolo[1,5-a]pyridin-2-yl)-1,4,6,7-tetrahydro-5H-imidazo[4,5-c]pyridin-5-yl)(2-(pyridin-2-yl)oxazol-5-yl)methanone]: 500 to 1000 nM; for `COc1cccn2nc([C@H]3c4nc[nH]c4CCN3c3nnc(C(F)F)o3)cc12` [Example 2150, (R)-2-(difluoromethyl)-5-(4-(4-methoxypyrazolo[1,5-a]pyridin-2-yl)-1,4,6,7-tetrahydro-5H-imidazo[4,5-c]pyridin-5-yl)-1,3,4-oxadiazole]: greater than 5000 nM. On the same count and under the same terms, the same measure for `FC(F)(F)Oc1cccn2nc([C@H]3c4nc[nH]c4CCN3c3ncccn3)cc12` [Example 2271, (R)-5-(pyrimidin-2-yl)-4-(4-(trifluoromethoxy)pyrazolo[1,5-a]pyridin-2-yl)-4,5,6,7-tetrahydro-1H-imidazo[4,5-c]pyridine]: greater than 5000 nM.

The same assay, now with this note: A375 cells expressing human R408W PAH; 24 hrs compound incubation; 13C-Tyrosine by LC-MS; average where tested multiple times; read-out: AC50.
For the molecule `C[C@@H](O)c1nc(C(F)F)c(C(=O)N2CCc3[nH]cnc3[C@H]2c2cc3cccc(C(F)(F)F)n3n2)o1` [Example 1180, (4-(difluoromethyl)-2-((R)-1-hydroxyethyl)oxazol-5-yl)((S)4-(7-(trifluoromethyl)pyrazolo[1,5-a]pyridin-2-yl)-6,7-dihydro-1H-imidazo[4,5-c]pyridin-5(4H)-yl)methanone], the half-maximal activity concentration (AC50) was in the range of 500 to 1000 nM. On the same count and under the same terms, the same measure for `O=C(c1ccnn1C(F)F)N1CCc2[nH]cnc2[C@@H]1c1cc2cc(F)ccn2n1` [Example 1093, (R)-(1-(difluoromethyl)-1H-pyrazol-5-yl)(4-(5-fluoropyrazolo[1,5-a]pyridin-2-yl)-6,7-dihydro-1H-imidazo[4,5-c]pyridin-5(4H)-yl)methanone]: 1000 to 5000 nM; for `N#Cc1ncoc1C(=O)N1CCc2[nH]cnc2[C@@H]1c1cc2c(Cl)cccn2n1` [Example 687, (R)-5-(4-(4-chloropyrazolo[1,5-a]pyridin-2-yl)-4,5,6,7-tetrahydro-1H-imidazo[4,5-c]pyridine-5-carbonyl)oxazole-4-carbonitrile]: 1000 to 5000 nM; for `O=C(c1cnco1)N1CCc2[nH]cnc2[C@H]1c1cc2c(C(F)(F)F)cccn2n1` [Example 1158, (S)-oxazol-5-yl(4-(4-(trifluoromethyl)pyrazolo[1,5-a]pyridin-2-yl)-6,7-dihydro-1H-imidazo[4,5-c]pyridin-5(4H)-yl)methanone]: 500 to 1000 nM. On to `Cn1cnc(-c2nnc(C(=O)N3CCc4[nH]cnc4[C@@H]3c3cc4cccc(Cl)n4n3)o2)c1` [Example 1098, (R)-(4-(7-chloropyrazolo[1,5-a]pyridin-2-yl)-6,7-dihydro-1H-imidazo[4,5-c]pyridin-5(4H)-yl)(5-(1-methyl-1H-imidazol-4-yl)-1,3,4-oxadiazol-2-yl)methanone], for which the AC50 was greater than 5000 nM. Still for that read-out and setting: the result for `COc1ccc(-c2nnc(C(=O)N3CCc4[nH]cnc4[C@H]3c3cc4c(C)cccn4n3)o2)nc1` [Example 817, (S)-(5-(5-methoxypyridin-2-yl)-1,3,4-oxadiazol-2-yl)(4-(4-methylpyrazolo[1,5-a]pyridin-2-yl)-6,7-dihydro-1H-imidazo[4,5-c]pyridin-5(4H)-yl)methanone] reads less than 500 nM; that for `CC(C)(C)c1nnc(C(=O)N2CCc3[nH]cnc3[C@@H]2c2cc3c(F)cccn3n2)o1` [Example 1026, (R)-(5-(tert-butyl)-1,3,4-oxadiazol-2-yl)(4-(4-fluoropyrazolo[1,5-a]pyridin-2-yl)-6,7-dihydro-1H-imidazo[4,5-c]pyridin-5(4H)-yl)methanone], 1000 to 5000 nM; that for `Cc1cccc2cc([C@H]3c4nc[nH]c4CCN3C(=O)c3oc(C(C)(C)O)nc3C(F)F)nn12` [Example 795, (R)-(4-(difluoromethyl)-2-(2-hydroxypropan-2-yl)oxazol-5-yl)(4-(7-methylpyrazolo[1,5-a]pyridin-2-yl)-6,7-dihydro-1H-imidazo[4,5-c]pyridin-5(4H)-yl)methanone], 1000 to 5000 nM. As for `Cc1nc(C(C)(C)O)oc1C(=O)N1CCc2[nH]cnc2[C@H]1c1cc2cccc(Cl)n2n1` [Example 1210, (S)-(4-(7-chloropyrazolo[1,5-a]pyridin-2-yl)-6,7-dihydro-1H-imidazo[4,5-c]pyridin-5(4H)-yl)(2-(2-hydroxypropan-2-yl)-4-methyloxazol-5-yl)methanone], the AC50 lay within 500 to 1000 nM. For the molecule `CC(C)(O)c1nc(Br)c(C(=O)N2CCc3[nH]cnc3[C@H]2c2cc3c(Cl)cccn3n2)o1` [Example 722, (S)-(4-bromo-2-(2-hydroxypropan-2-yl)oxazol-5-yl)(4-(4-chloropyrazolo[1,5-a]pyridin-2-yl)-6,7-dihydro-1H-imidazo[4,5-c]pyridin-5(4H)-yl)methanone], the half-maximal activity concentration (AC50) was less than 500 nM. Same read-out and setting: the result for `CC(C)(C)c1nnc(C(=O)N2CCc3[nH]cnc3[C@@H]2c2cc3c(C(F)(F)F)cccn3n2)o1` [Example 949, (R)-(5-(tert-butyl)-1,3,4-oxadiazol-2-yl)(4-(4-(trifluoromethyl)pyrazolo[1,5-a]pyridin-2-yl)-6,7-dihydro-1H-imidazo[4,5-c]pyridin-5(4H)-yl)methanone] reads 1000 to 5000 nM.
